According to the supplement of paper PMC10307832:

How the values were obtained:
Assay in all cases: relative viability (nuclei count vs DMSO), 5 days (fraction); higher = more cells survive
[1] = compound: C1CSC2=C(C(=O)N1)SC3=C2C=C(C=C3)O [kb NB 142-70] + N=C(N)NC(=N)NCCc1ccccc1 [Phenformin] (partner 250 µM)
How it was run: (§1)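 Lung cancer cell lines were pin-tool dosed in 1536-well plates on the day after seeding, with either a lone drug or a fixed anchor-drug dose plus five library-drug doses (not always all listed) in √10 steps. Nuclei were counted on 4× images after 5 days. Relative viability is the ratio of treated-well to vehicle-well nuclei counts, with each value a median of duplicate plates.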

[2] = compound: C1CSC2=C(C(=O)N1)SC3=C2C=C(C=C3)O [kb NB 142-70] + Nc1ncn([C@H]2C[C@H](O)[C@@H](CO)O2)c(=O)n1 [Decitabine] (partner 2 µM)
How it was run: as §1

[3] = compound: NCC(=O)Nc1ccc(-n2nc(C(F)(F)F)cc2-c2ccc3c(ccc4ccccc43)c2)cc1 + CS(=O)(=O)CCNCc1ccc(-c2ccc3ncnc(Nc4ccc(OCc5cccc(F)c5)c(Cl)c4)c3c2)o1 [Lapatinib] (partner 2 µM)
How it was run: as §1

[4] = compound: C1CSC2=C(C(=O)N1)SC3=C2C=C(C=C3)O [kb NB 142-70] + Cc1cc(Nc2cc(N3CCN(C)CC3)nc(Sc3ccc(NC(=O)C4CC4)cc3)n2)n[nH]1 [Tozasertib] (partner 0.1 µM)
How it was run: as §1

[5] = compound: NCC(=O)Nc1ccc(-n2nc(C(F)(F)F)cc2-c2ccc3c(ccc4ccccc43)c2)cc1 + CC(C)C[C@H](NC(=O)[C@H](Cc1ccccc1)NC(=O)c1cnccn1)B(O)O [Bortezomib] (partner 0.002 µM)
How it was run: as §1

Cell Line	relative viability ([1]; first compound 0.1 µM)	relative viability ([1]; first compound 1 µM)	relative viability ([1]; first compound 3.162 µM)	relative viability ([2]; first compound 0.1 µM)	relative viability ([2]; first compound 1 µM)	relative viability ([2]; first compound 3.162 µM)	relative viability ([3]; first compound 0.02 µM)	relative viability ([3]; first compound 0.06325 µM)	relative viability ([3]; first compound 0.2 µM)	relative viability ([3]; first compound 0.6325 µM)	relative viability ([3]; first compound 2 µM)	relative viability ([4]; first compound 0.1 µM)	relative viability ([4]; first compound 1 µM)	relative viability ([4]; first compound 3.162 µM)	relative viability ([5]; first compound 0.02 µM)	relative viability ([5]; first compound 0.06325 µM)	relative viability ([5]; first compound 0.2 µM)	relative viability ([5]; first compound 0.6325 µM)	relative viability ([5]; first compound 2 µM)
201T	0.453	0.418	0.492	0.892	0.867	0.825	1.04	1.07	0.996	1.08	1.04	0.875	0.974	1.03	1.04	1.18	1.03	1.17	1.09
A549	0.129	0.193	0.166	0.24	0.245	0.233	1.02	1.02	0.994	1.03	0.95								
A-427	0.466	0.37	0.248	0.579	0.568	0.55	1.08	1.11	1.14	1.04	1.11	0.252	0.221	0.195	0.949	0.919	0.948	0.972	0.984
ABC-1	0.223	0.24	0.166	1.05	0.69	0.776	1.26	1.01	0.983	1.05	1.11	0.178	0.165	0.169	0.306	0.321		0.226	0.267
BEN	0.25	0.263	0.239	0.776	0.741	0.588	0.738	1.11	0.701	0.708	0.542	0.459	0.455	0.437	0.817	0.852	0.763	0.701	0.576
CAL-12T	0.565	0.601	0.485				0.671	0.823	0.672	0.709	0.679	0.36	0.395	0.267	0.899	1.09	0.967	0.931	1.11
COR-L23	0.416	0.426	0.258	0.409	0.465	0.246	0.97	0.997	1.2	0.938	0.659	0.237	0.157	0.134	1.05	0.944	0.962	0.978	0.737
COR-L 105	0.428	0.534	0.486	0.68	0.576	0.589	0.418	0.33	0.401	0.39	0.437	0.319	0.287	0.255	0.73	0.917	0.744	0.703	1.03
Calu-6							0.969	1.12	1.19	1.16	0.963				0.998	1.2	1.06	0.972	1.04
ChaGo-K-1	0.513	0.49	0.453	0.509	0.515	0.461						0.244	0.246	0.219	0.979	1.02	0.81	1.04	1.12
EBC-1							0.21	0.219	0.215	0.222	0.226				0.533	0.556	0.738	0.52	0.589
EKVX	0.24	0.238	0.244	0.369	0.311	0.364	0.213	0.216	0.228	0.223	0.203	0.353	0.382	0.466	1.05	1.09	1.16	1.02	0.984
EMC-BAC-2	0.524	0.501	0.38	1.06	0.994	1.1	0.859	0.925	0.903	0.9	0.891	0.303	0.302	0.261	1.02	1.19	1.1	1.07	1.1
EPLC-272H	0.38	0.267	0.189	0.404	0.303	0.303	0.88	1.09	0.85	0.907	1.21	0.353	0.217	0.143	0.806	0.873	0.868	0.943	1.14
H3255	0.358	0.362	0.371	0.623	0.591	0.629	0.276	0.268	0.231	0.258	0.268	0.534	0.785	0.746	0.87	1.12	0.846	0.791	0.876
HARA	0.486	0.473	0.344	0.538	0.372	0.286	0.649	0.801	0.829	0.822	0.989	0.0886	0.112	0.0824	1.09	1.05	1.22	1.12	1.25
HCC-15	0.476	0.491	0.518	0.618	0.694	0.553	0.847	0.876	0.839	0.821	0.812	0.427	0.471	0.227	1.07	1.06	1.06	1.01	0.996
HCC-44	0.405	0.256	0.148	0.946	0.993	1.01	1.02	1.16	0.974	1.03	1.05	0.728	0.901	0.722	0.968	0.872	0.946	0.875	0.87
HCC-78	0.72	0.673	0.651	0.683	0.727	0.677	0.819	1.04	0.745	0.742	0.342	0.389	0.468	0.411	0.53	0.568	0.496	0.571	0.505
HCC-366	0.637	0.588	0.604	0.366	0.407	0.415	1.04	1.07	1.12	0.997	0.698	0.122	0.176	0.118	1.17	1.03	1.04	1.02	1.01
HCC-827	0.415	0.387	0.339	0.31	0.288	0.274	0.178	0.201	0.172	0.199	0.23	0.418	0.429	0.367	1.02	1.12	1.04	1	1.15

Cell Line	relative viability ([1]; first compound 0.1 µM)	relative viability ([1]; first compound 1 µM)	relative viability ([1]; first compound 3.162 µM)	relative viability ([2]; first compound 0.1 µM)	relative viability ([2]; first compound 1 µM)	relative viability ([2]; first compound 3.162 µM)	relative viability ([3]; first compound 0.02 µM)	relative viability ([3]; first compound 0.06325 µM)	relative viability ([3]; first compound 0.2 µM)	relative viability ([3]; first compound 0.6325 µM)	relative viability ([3]; first compound 2 µM)	relative viability ([4]; first compound 0.1 µM)	relative viability ([4]; first compound 1 µM)	relative viability ([4]; first compound 3.162 µM)	relative viability ([5]; first compound 0.02 µM)	relative viability ([5]; first compound 0.06325 µM)	relative viability ([5]; first compound 0.2 µM)	relative viability ([5]; first compound 0.6325 µM)	relative viability ([5]; first compound 2 µM)
HOP-62	0.666	0.663	0.534	0.217	0.203	0.226	1.06	0.913	0.998	0.959	1.14	0.314	0.315	0.245	0.828	0.859	0.728	0.339	1.02
IA-LM							0.802	0.823	0.757	0.85	0.717				0.775	0.721	0.802	0.814	0.813
LCLC-103H	0.352	0.317	0.318	0.75	0.737	0.773						0.472	0.524	0.417	1.03	1	1.13	1.07	1.1
LK-2	0.5	0.403	0.318	0.37	0.282	0.195	0.966	1.06	0.884	1	0.874	0.168	0.167	0.189					
NCI-H358	0.279	0.187	0.0752	0.226	0.148	0.0899	0.553	0.323	0.41	0.528	0.491	0.109	0.0809	0.077					
NCI-H441	0.881	0.894	0.633	0.259	0.213	0.162						0.663	0.581	0.302	0.931	0.481	0.308	0.409	0.361
NCI-H522	0.633	0.561	0.522	0.61	0.698	0.581						0.521	0.565	0.61					
NCI-H1299							0.987	0.943	1.02	0.952	0.972				0.992	1.03	1.1	0.972	1.04
NCI-H1395	0.45	0.484	0.434	0.635	0.726	0.609	1.15	1.02	0.928	1.08	1.04	0.724	0.784	0.729					
NCI-H1563	0.656	0.688	0.624				0.841	0.998	0.758	0.945	0.909				0.77	0.962	0.69	0.925	0.928
NCI-H1623	0.599	0.617	0.591									0.441	0.433	0.379					
NCI-H1648				0.452	0.435	0.493						0.396	0.524	0.398					
NCI-H1703							1.03	1.09	1.41	0.964	1.04				0.278	0.237	0.307	0.215	0.344
NCI-H1792		0.297	0.392	0.536	0.536	0.458	1	0.948	0.918	0.933	0.857				1.02	0.974	0.932	0.946	0.966
NCI-H1793	0.285	0.406	0.42	0.487	0.544	0.3	0.659	0.684	0.743	0.886	0.84	0.377	0.346	0.197					
NCI-H1944	0.202	0.205	0.2	0.451	0.458	0.473	0.813	0.888	0.752	0.801	0.876	0.244	0.244	0.27					
NCI-H2170	0.429	0.405	0.395	0.501	0.496	0.369	0.278	0.285	0.277	0.286	0.288	0.688	0.735	0.481					
NCI-H2228	0.263	0.317	0.178				1.1	1.21	1.14	0.935	0.804	0.254	0.217	0.146	0.749	0.935	1.01	1.38	0.914
NCI-H2342	0.615	0.619	0.502	0.66	0.694	0.748						0.447	0.614	0.544					
SK-MES-1	0.754	0.658	0.407	0.466	0.338	0.22	0.485	0.403	0.546	0.455	0.46	0.867	0.85	0.221					
SW 900	0.495	0.521	0.193	0.473	0.4	0.418						0.608	0.472	0.407					
